From patent publication US7244431B2, “Allergy vaccines and their preparation” (priority 2000, dated 2007)

Legend:
[1] = system: IgE antibodies in sera from birch pollen allergic patients; assay: ELISA detection of peptide- and rBet v 1-specific IgE antibodies; type: binding, human
Procedure: Birch pollen allergic patients suffering from allergic rhinoconjunctivitis and/or asthma to birch pollen and related allergens were selected according to case history indicative for seasonal birch pollinosis and characterized by skin prick testing with birch pollen extract and serological CAP RAST (Pharmacia Diagnostics, Uppsala, Sweden) testing. Total IgE levels in the sera were determined by CAP RIST measurements (Pharmacia). […] Sera from 60 birch pollen allergic patients and a non-atopic individual were used for IgE competition studies. The birch pollen allergic patients group consisted of 25 males and 35 females with a mean age of 37 years (ranging from 19-60 years) (Table 2).
Subsequently, plates were incubated with 1:3 diluted sera from 60 birch pollen allergic patients and from a non-atopic individual overnight at 4° C. Bound IgE antibodies were detected with a 1:1000 diluted alkaline-phosphatase-coupled mouse monoclonal anti-human IgE antibody (Pharmingen, San Diego, Calif.).

[2] = system: birch pollen allergic patients; assay: Skin prick testing of allergic patients; type: in vivo, human
Procedure: SPTs were performed on the individuals forearms as described ([…]. et al. (1997) J. Clin Invest. 99, 1673-168; Dreborg S: (1989) J. Am. Acad. DerMatol. 21, 820-821). […] In addition standardized skin prick solutions (birch pollen extract and histamine) (Allergopharma, Reinbek, Germany) were tested. Reactions were recorded 20 minutes after SPT by photography and by transferring the ballpoint pen-surrounded wheal area with a scotch tape to paper.

With “LFPKVAPQAISSVENIEGNGGPGTIKKISFC [Peptide P2, Bet v 1-derived synthetic peptide, position aa 30-59, one cysteine added]” the “IgE (OD)” value ([1]; serum of NHS, non-allergic control individual) was “— (Dashes indicate reactivities below the cut-off level (OD=0.050))”, the “IgE (OD)” value ([1]; serum of patient 1) was “— (Dashes indicate reactivities below the cut-off level (OD=0.050))” and the “IgE (OD)” value ([1]; serum of patient 2) was “— (Dashes indicate reactivities below the cut-off level (OD=0.050))”. The “IgE (OD)” value ([1]; serum of patient 3) was “— (Dashes indicate reactivities below the cut-off level (OD=0.050))”, the “IgE (OD)” value ([1]; serum of patient 4) was “— (Dashes indicate reactivities below the cut-off level (OD=0.050))” and the “IgE (OD)” value ([1]; serum of patient 5) was “— (Dashes indicate reactivities below the cut-off level (OD=0.050))”. For the same molecule, the “IgE (OD)” value ([1]; serum of patient 6) was “— (Dashes indicate reactivities below the cut-off level (OD=0.050))”, the “IgE (OD)” value ([1]; serum of patient 7) was “— (Dashes indicate reactivities below the cut-off level (OD=0.050))” and the “IgE (OD)” value ([1]; serum of patient 8) was “— (Dashes indicate reactivities below the cut-off level (OD=0.050))”. For the same molecule, the “IgE (OD)” value ([1]; serum of patient 9) was “— (Dashes indicate reactivities below the cut-off level (OD=0.050))”, the “IgE (OD)” value ([1]; serum of patient 10) was “— (Dashes indicate reactivities below the cut-off level (OD=0.050))” and the “IgE (OD)” value ([1]; serum of patient 11) was “— (Dashes indicate reactivities below the cut-off level (OD=0.050))”. For the same molecule, the “IgE (OD)” value ([1]; serum of patient 12) was “— (Dashes indicate reactivities below the cut-off level (OD=0.050))”, the “IgE (OD)” value ([1]; serum of patient 13) was “— (Dashes indicate reactivities below the cut-off level (OD=0.050))” and the “IgE (OD)” value ([1]; serum of patient 14) was “— (Dashes indicate reactivities below the cut-off level (OD=0.050))”. The “IgE (OD)” value ([1]; serum of patient 15) was “— (Dashes indicate reactivities below the cut-off level (OD=0.050))”, the “IgE (OD)” value ([1]; serum of patient 16) was “— (Dashes indicate reactivities below the cut-off level (OD=0.050))” and the “IgE (OD)” value ([1]; serum of patient 17) was “— (Dashes indicate reactivities below the cut-off level (OD=0.050))”. The “IgE (OD)” value ([1]; serum of patient 18) was “— (Dashes indicate reactivities below the cut-off level (OD=0.050))”, the “IgE (OD)” value ([1]; serum of patient 19) was “— (Dashes indicate reactivities below the cut-off level (OD=0.050))” and the “IgE (OD)” value ([1]; serum of patient 20) was “— (Dashes indicate reactivities below the cut-off level (OD=0.050))”. For the same molecule, the “IgE (OD)” value ([1]; serum of patient 21) was “— (Dashes indicate reactivities below the cut-off level (OD=0.050))”, the “IgE (OD)” value ([1]; serum of patient 22) was “— (Dashes indicate reactivities below the cut-off level (OD=0.050))” and the “IgE (OD)” value ([1]; serum of patient 23) was “— (Dashes indicate reactivities below the cut-off level (OD=0.050))”. The “IgE (OD)” value ([1]; serum of patient 24) was “— (Dashes indicate reactivities below the cut-off level (OD=0.050))”, the “IgE (OD)” value ([1]; serum of patient 25) was “— (Dashes indicate reactivities below the cut-off level (OD=0.050))” and the “IgE (OD)” value ([1]; serum of patient 26) was “— (Dashes indicate reactivities below the cut-off level (OD=0.050))”. The “IgE (OD)” value ([1]; serum of patient 27) was “— (Dashes indicate reactivities below the cut-off level (OD=0.050))”, the “IgE (OD)” value ([1]; serum of patient 28) was “— (Dashes indicate reactivities below the cut-off level (OD=0.050))” and the “IgE (OD)” value ([1]; serum of patient 29) was “— (Dashes indicate reactivities below the cut-off level (OD=0.050))”. The “IgE (OD)” value ([1]; serum of patient 30) was “— (Dashes indicate reactivities below the cut-off level (OD=0.050))”, the “IgE (OD)” value ([1]; serum of patient 31) was “— (Dashes indicate reactivities below the cut-off level (OD=0.050))” and the “IgE (OD)” value ([1]; serum of patient 32) was “— (Dashes indicate reactivities below the cut-off level (OD=0.050))”. For the same molecule, the “IgE (OD)” value ([1]; serum of patient 33) was “— (Dashes indicate reactivities below the cut-off level (OD=0.050))”, the “IgE (OD)” value ([1]; serum of patient 34) was “— (Dashes indicate reactivities below the cut-off level (OD=0.050))” and the “IgE (OD)” value ([1]; serum of patient 35) was “— (Dashes indicate reactivities below the cut-off level (OD=0.050))”. The “IgE (OD)” value ([1]; serum of patient 36) was “— (Dashes indicate reactivities below the cut-off level (OD=0.050))”, the “IgE (OD)” value ([1]; serum of patient 37) was “— (Dashes indicate reactivities below the cut-off level (OD=0.050))” and the “IgE (OD)” value ([1]; serum of patient 38) was “— (Dashes indicate reactivities below the cut-off level (OD=0.050))”. For the same molecule, the “IgE (OD)” value ([1]; serum of patient 39) was “— (Dashes indicate reactivities below the cut-off level (OD=0.050))”, the “IgE (OD)” value ([1]; serum of patient 40) was “— (Dashes indicate reactivities below the cut-off level (OD=0.050))” and the “IgE (OD)” value ([1]; serum of patient 41) was “— (Dashes indicate reactivities below the cut-off level (OD=0.050))”. The “IgE (OD)” value ([1]; serum of patient 42) was “— (Dashes indicate reactivities below the cut-off level (OD=0.050))”, the “IgE (OD)” value ([1]; serum of patient 43) was “— (Dashes indicate reactivities below the cut-off level (OD=0.050))” and the “IgE (OD)” value ([1]; serum of patient 44) was “— (Dashes indicate reactivities below the cut-off level (OD=0.050))”. The “IgE (OD)” value ([1]; serum of patient 45) was “— (Dashes indicate reactivities below the cut-off level (OD=0.050))”, the “IgE (OD)” value ([1]; serum of patient 46) was “— (Dashes indicate reactivities below the cut-off level (OD=0.050))” and the “IgE (OD)” value ([1]; serum of patient 47) was “— (Dashes indicate reactivities below the cut-off level (OD=0.050))”. For the same molecule, the “IgE (OD)” value ([1]; serum of patient 48) was “— (Dashes indicate reactivities below the cut-off level (OD=0.050))”, the “IgE (OD)” value ([1]; serum of patient 49) was “— (Dashes indicate reactivities below the cut-off level (OD=0.050))” and the “IgE (OD)” value ([1]; serum of patient 50) was “— (Dashes indicate reactivities below the cut-off level (OD=0.050))”. The “IgE (OD)” value ([1]; serum of patient 51) was “— (Dashes indicate reactivities below the cut-off level (OD=0.050))”, the “IgE (OD)” value ([1]; serum of patient 52) was “— (Dashes indicate reactivities below the cut-off level (OD=0.050))” and the “IgE (OD)” value ([1]; serum of patient 53) was “— (Dashes indicate reactivities below the cut-off level (OD=0.050))”. For the same molecule, the “IgE (OD)” value ([1]; serum of patient 54) was “— (Dashes indicate reactivities below the cut-off level (OD=0.050))”, the “IgE (OD)” value ([1]; serum of patient 55) was “— (Dashes indicate reactivities below the cut-off level (OD=0.050))” and the “IgE (OD)” value ([1]; serum of patient 56) was “— (Dashes indicate reactivities below the cut-off level (OD=0.050))”. For the same molecule, the “IgE (OD)” value ([1]; serum of patient 57) was “— (Dashes indicate reactivities below the cut-off level (OD=0.050))”, the “IgE (OD)” value ([1]; serum of patient 58) was “— (Dashes indicate reactivities below the cut-off level (OD=0.050))” and the “IgE (OD)” value ([1]; serum of patient 59) was “— (Dashes indicate reactivities below the cut-off level (OD=0.050))”. The “IgE (OD)” value ([1]; serum of patient 60) was “— (Dashes indicate reactivities below the cut-off level (OD=0.050))”, the mean wheal diameter ([2]; individual 1, 100 μg/ml) was 0 mm and the mean wheal diameter ([2]; individual 2, 100 μg/ml) was 0 mm. For the same molecule, the mean wheal diameter ([2]; individual 3, 100 μg/ml) was 0 mm, the mean wheal diameter ([2]; individual 4, 100 μg/ml) was 0 mm and the mean wheal diameter ([2]; individual 5, 100 μg/ml) was 0 mm. For the same molecule, the mean wheal diameter ([2]; individual 6 (allergic, without birch pollen allergy), 100 μg/ml) was 0 mm.

NCCc1c[nH]cn1 [histamine, reference compound] showed a mean wheal diameter ([2]; individual 1, standardized skin prick solution) of 5 mm, a mean wheal diameter ([2]; individual 2, standardized skin prick solution) of 6 mm and a mean wheal diameter ([2]; individual 3, standardized skin prick solution) of 7 mm. It also gave a mean wheal diameter ([2]; individual 4, standardized skin prick solution) of 5 mm, a mean wheal diameter ([2]; individual 5, standardized skin prick solution) of 5.5 mm and a mean wheal diameter ([2]; individual 6 (without birch pollen allergy), standardized skin prick solution) of 4 mm. For the same molecule, the immediate skin reaction ([2]; standardized skin prick solutions) was “All individuals reacted”.
